The text below walks through data of patent US4762843A, “Hetero [f] fused carbocyclic pyridines as dopaminergic agents” (Warner-Lambert Company, priority 1987, dated 1988).

Counter-ions that a name gives are not always drawn. Like-named read-outs stand apart in the source and are kept apart here.

For one experiment, the system named is dopamine synthesis. In words: Inhibition of dopamine synthesis in rats. Format: in vivo. Conditions: Rattus norvegicus, read-out: Percent Inhibition of Dopamine Synthesis. Here is the method: (§1) The compounds of formula I are valuable dopaminergic agents. […] Thus, the compounds of formula I were tested for their ability to inhibit locomotor activity in mice according to the assay described in Pharmacol. Biochem. Behav. 1978 (8) 97; for their ability to inhibit haloperidol binding in a receptor binding assay described in Mol. Pharmacol. 1976 (12) 800; and for their ability to inhibit dopamine synthesis in rats according to the protocol described in Naumyn-Schmiedeberg's Arch. Pharmacol., 1976 (296) 5. The above test methods are incorporated herein by reference.

The target of a further experiment is T1, haloperidol binding (Bos taurus, UniProt P20288).
T1 construct: from tissue
T1 sequence (P20288 whole entry): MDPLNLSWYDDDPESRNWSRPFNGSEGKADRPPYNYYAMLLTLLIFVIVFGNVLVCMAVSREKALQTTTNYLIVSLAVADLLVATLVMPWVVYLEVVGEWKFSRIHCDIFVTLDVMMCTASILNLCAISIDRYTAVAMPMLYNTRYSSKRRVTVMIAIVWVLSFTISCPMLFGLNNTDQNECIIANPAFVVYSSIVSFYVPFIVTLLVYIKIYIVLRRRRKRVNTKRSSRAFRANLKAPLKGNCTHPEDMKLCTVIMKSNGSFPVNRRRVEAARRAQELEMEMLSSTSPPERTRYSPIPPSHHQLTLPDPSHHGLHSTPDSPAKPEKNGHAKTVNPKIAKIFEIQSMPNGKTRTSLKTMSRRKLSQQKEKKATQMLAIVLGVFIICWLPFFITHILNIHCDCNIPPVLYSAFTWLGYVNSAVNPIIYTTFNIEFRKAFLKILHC
Briefly: Inhibition of haloperidol binding in a receptor binding assay. As to conditions: read-out: Percent Inhibition Haloperidol Binding. How it is done:
as §1

Experiment [1] concerns locomotor activity in mice. Briefly: Inhibition of locomotor activity in mice. It counts as in vivo. As to conditions: Mus musculus, read-out: Inhibition of Locomotor Activity in Mice (ED50). Here is the method: as §1

Usually inhibition stands for the percentage by which the read-out fell short of the control. A word on the ED50: it is the dose that gives a 50% effect, or the effect in half of the subjects. For `CCCN1CCC=C2c3nc(N)sc3CCC21` (racemic) [Example 5, (±) 4,5,5a,6,7,8-Hexahydro-6-propylthiazolo[4,5-f]quinolin-2-amine], the inhibition at 5 mg/kg in the experiment on dopamine synthesis was found to be 53%. Besides, the inhibition at 1 µM on haloperidol binding amounted to 43%. The ED50 in experiment [1] (ip) turned out to be 5.5 mg/kg.
Turning to `CN1CCC=C2c3nc(N)sc3CCC21` (racemic) [Example 5a, (±) 4,5,5a,6,7,8-Hexahydro-6-methylthiazolo[4,5-f]quinolin-2-amine], in the experiment on dopamine synthesis, the inhibition at 10 mg/kg amounted to 92%. Also, the inhibition at 5 µM on haloperidol binding was 62%. Besides, the ED50 in experiment [1] (ip) is 2.6 mg/kg.
With `CCN1CCC=C2c3nc(N)sc3CCC21` (racemic) [Example 5b, (±) 6-Ethyl-4,5,5a,6,7,8-hexahydrothiazolo[4,5-f]quinolin-2-amine], the inhibition at 1 mg/kg in the experiment with dopamine synthesis turned out to be 60%. Moreover, the inhibition at 5 µM on haloperidol binding was 68%. Also, in experiment [1] (ip), the 50% effective dose (ED50) worked out at 0.62 mg/kg.
In the case of `CCCCN1CCC=C2c3nc(N)sc3CCC21` (racemic) [Example 5c, (±) 6-Butyl-4,5,5a,6,7,8-hexahydrothiazolo[4,5-f]quinolin-2-amine, dihydrochloride, hemihydrate], in the experiment on dopamine synthesis, the inhibition at 10 mg/kg is 18%. Besides, the inhibition at 10 µM on haloperidol binding is 70%. The 50% effective dose (ED50) in experiment [1] (ip) worked out at 14.7 mg/kg.
For `C=CCN1CCC=C2c3nc(N)sc3CCC21` (racemic) [Example 5d, (±) 4,5,5a,6,7,8-Hexahydro-6-(2-propenyl)thiazolo [4,5-f]quinolin-2-amine, dihydrochloride], the inhibition at 5 mg/kg in the experiment on dopamine synthesis is 100%. Further, the 50% effective dose (ED50) in experiment [1] (ip) was determined as 0.24 mg/kg.
With `Nc1nc2c(s1)CCC1C2=CCCN1CC1CC1` (racemic) [Example 5e, (±) 6-(Cyclopropylmethyl)-4,5,5a,6,7,8-hexahydrothiazolo[4,5-f]quinolin-2-amine, dihydrochloride], the inhibition at 1 µM at haloperidol binding was determined as 62%. Moreover, the ED50 in experiment [1] (ip) was found to be 12 mg/kg.
Regarding `Nc1nc2c(s1)CCC1C2=CCCN1CCc1ccccc1` (racemic) [Example 5f, (±) 4,5,5a,6,7,8-Hexahydro-6-(2-phenylethyl)thiazolo [4,5-f]quinolin-2-amine], at haloperidol binding (at 5 × 10^-6 M), the inhibition at 5 µM is 67%. For the same molecule, the ED50 in experiment [1] (mice, IP) stood at 31.3 mg/kg.
Taken in the same sequence, the figures for `Nc1nc2c(s1)CCC1C2=CCCN1Cc1ccccc1` (racemic) [Example 5g, (±) 4,5,5a,6,7,8-Hexahydro-6-(phenylmethyl)thiazolo [4,5-f]quinolin-2-amine, dihydrochloride, hydrate] were 61% and 26.1 mg/kg.
Regarding `CCCN1CCC=C2c3nc(NC(C)=O)sc3CCC21` (racemic) [Example 15a, (±) N-(4,5,5a,6,7,8-Hexahydro-6-propylthiazolo[4,5-f]quinolin-2-yl)acetamide], at haloperidol binding (at 5 × 10^-6 M), the inhibition at 5 µM was determined as 23%. For the same molecule, the ED50 in experiment [1] (mice, IP) came out at 16.3 mg/kg.
`C=CCN1CCC=C2c3nc(NC(C)=O)sc3CCC21` (racemic) [Example 15b, (±) N-[4,5,5a,6,7,8-Hexahydro-6-(2-propenyl)thiazolo [4,5-f]quinolin-2-yl]acetamide]: the inhibition at 5 mg/kg in the experiment on dopamine synthesis (rats, at 5 mg/kg) was 82%. Further, the inhibition at 10 µM at haloperidol binding (at 1 × 10^-5) amounted to 21%. In experiment [1] (mice, IP), the ED50 worked out at 3.1 mg/kg.
Consider `CCCN1CCC[C@H]2c3sc(N)nc3CC[C@@H]21` (racemic) [Example 17, (±) trans-4,5,5a,6,7,8,9,9a-Octahydro-6-propylthiazolo[5,4-f]quinolin-2-amine], for which, in the experiment on dopamine synthesis, the inhibition at 5 mg/kg came to 100%. Besides, the inhibition at 1 µM at haloperidol binding came to 37%. Moreover, in experiment [1] (ip), the median effective dose (ED50) came to 0.7 mg/kg.
For the molecule `Nc1nc2c(s1)CCC1NCCC=C21` (racemic) [Example 40, (±) 4,5,5a,6,7,8-Hexahydrothiazolo[4,5-f]quinolin-2-amine, dihydrochloride], the inhibition at 10 mg/kg with dopamine synthesis was determined as 44%. Also, the inhibition at 5 µM on haloperidol binding is 77%. Moreover, in experiment [1] (ip), the 50% effective dose (ED50) was 11.6 mg/kg.
As for `CCCN1CCC=C2c3nc(N)sc3CCC21` (single isomer, unassigned; (+)) [Example 16, (+) 4,5,5a,6,7,8-hexahydro-6-propylthiazolo[4,5-f]quinolin-2-amine, dihydrochloride], the inhibition at 3 mg/kg with dopamine synthesis is 100%. Further, the inhibition at 5 µM on haloperidol binding was determined as 76%. Moreover, the ED50 in experiment [1] (ip) turned out to be 2.5 mg/kg.
